Measured values as given in US20220047530A1, “USE OF HORDENINE IN PREPARING DRUG FOR TREATING HYPOPHYSOMA” (Wuhan Third Hospital, priority 2019, published 2022).
“Also recorded” adds a separate entry of the source.

Columns and labels:
pituitary prolactinoma = conditions: patients; cited from earlier work
SD rats [1] = assay: Toxicity prediction (pre-experiment); assay type: in vivo; conditions: gavage 0.07 g/kg twice a day
Source text: (§1) 5 SPF-grade SD rats are randomly selected for toxicity prediction. Another 30 SPF-grade SD rats are randomly selected, wherein half are males, and half are females. After the purchase of the animals, the animals are adaptively fed for one week. The rats are fasted at the night before the experiment (without stopping the provision of water). During the experiment, the animals are randomly divided into 3 groups, which are the control group, the low-dose hordenine treatment group (0.035 g/kg), and the high-dose hordenine treatment group (0.07 g/kg).
7 mg/ml of hordenine solution (the theoretical maximum solubility of hordenine is 7 mg/ml) is used for pre-experiment to observe the survival of rats. 5 SPF-grade SD rats are randomly selected, and hordenine is administered by gavage at the maximum dose of 0.07 g/kg, twice a day, with an interval of no less than 4 hours, 1 day of administration, and 7 days of observation. The poisoning, death, and amounts of food and water consumed by the rats are daily observed and recorded. For rats that die during the experiment, they are immediately dissected to find the cause of death. After the completion of the experiment, all dying rats will be dissected to remove the heart, liver, spleen, lung and kidney for visual observation, and pathological sections of each organ are made to roughly determine the target organ of toxicity.

TLR4/NF-κB/MAPK pathway = assay: Western blot of pituitary protein expression in rats with prolactinoma and adrenocorticotrophic hormone adenoma; assay type: in vivo, F344 rats (Rattus norvegicus); conditions: once a day for 30 days by gavage; vs model group
Source text: (§2) 70 rats of the prolactinoma and adrenocorticotrophic hormone adenoma model as established in Step 1.1 “Establishment of Rattus norvegicus pituitary tumor model” and normal rats of the control group are used as samples.
(§3) The 70 F344 rats are randomly divided into the normal group, operation group, model group, positive drug group (bromocriptine positive drug group), high-dose hordenine group, medium-dose hordenine group, and low-dose hordenine group, […]. Except rats in the normal group and the operation group, rats in the other groups are all made into rats with prolactinoma and adrenocorticotrophic hormone adenoma.
(§4) Rats in the positive drug group are given an aqueous bromocriptine solution by gavage at a dose of 0.45 mg/kg. Rats in the high-, medium- and low-dose groups of an aqueous solution of hordenine are given an aqueous solution of hordenine by oral gavage at a dose of 40 mg/kg, 20 mg/kg, and 10 mg/kg, respectively. Rats in the normal group and the model group are given the same dose of distilled water. The administration is performed once a day for 30 days, and during this period of time, the rats are weighed every five days and the changes in body weight are recorded.
Tissue extraction: The animals in each group are anesthetized, and the pituitary glands are removed as described in Section 2.2.2 of Part I, which are kept at −80° C. for later use.
The protein expression of TLR4/NF-κB/MAPK pathway in rats in the treatment groups after the administration of hordenine is determined by Western blotting detection. The effect of hordenine on the expression of various proteins in the pituitary glands of rats with prolactinoma and adrenocorticotrophic hormone adenoma as determined by Western blot detection on is shown in FIG. 16.

SD rats [2] = assay: Acute toxicity test (maximum dose method); assay type: in vivo; set-up: key to Inflammation score: 0: no or very little inflammation; 1: mild inflammation; 2: moderate inflammation; 3: severe inflammation; conditions: for ALB / ALP / ALT / AST / DBIL / TBA / TBIL / TP / γ-GT: serum
Source text: The experimental animals are 40 SPF-grade SD rats, provided by the Experimental Animal Center of China Three Gorges University (SCXK (E)) 2017-0012), wherein half are males, and half are females, each with a body weight of 150 g; the animal number is: No. 42010200001245, and the experimental unit license number is: SYXK (E) 2014-0080.
as §1
If no rats die in the pre-experiment, according to the acute toxicity test method, the maximum dose method is used, and hordenine is administered by gavage at a high dose of 0.07 g/kg and a low dose of 0.035 g/kg, respectively. The control group is given the same volume of saline. The administration is carried out twice a day (with an interval of no less than 4 hours) for 7 days, and the rats are fasted for 3 to 4 hours after the administration. The animals' immediate reactions are recorded, and the rats' appearance, behavior, activity, spirit, appetite, fur, breathing, weight, and the like, are carefully observed continuously for 14 days. The poisoning, death, and amounts of food and water consumed by the rats are recorded daily to determine the LD0 (0% mortality), LD100 (100% mortality) and the r value between the corresponding dose groups, and determine the LD50 (half lethal dose) value. For mice that die during the experiment, they should be dissected immediately to find the cause of their death. After the completion of the experiment, all survived rats are anesthetized by intraperitoneal injection of urethane, and immediately dissected to remove the heart, liver, spleen, lung, and kidney, which are observed with naked eyes for disease. And pathological sections of each organ are made: The tissues are fixed with a solution of 4% paraformaldehyde, conventionally sampled, dehydrated, embedded in paraffin, made into a slice (4 μm thick), stained with HE staining method, observed with an optical microscope, and photographed to roughly determine the target organs of toxicity. The serum of all experimental rats is used for the determination of routine blood biochemical indexes.

IL-β = assay: ELISA of IL-β content in serum of rats with prolactinoma and adrenocorticotrophic hormone adenoma; assay type: in vivo, F344 rats (Rattus norvegicus); conditions: oral gavage 40, 20, 10 mg/kg once a day for 30 days; vs model group
Source text: as §2, §3
as §4, with “recorded. […]” for “recorded.”
(§5) The contents of PRL and IL-β in the serum of rats in each group are determined by ELISA according to the procedures in the ELISA kit instructions.

prolactin (PRL) = assay: ELISA of prolactin content in serum of rats with prolactinoma and adrenocorticotrophic hormone adenoma; assay type: in vivo, F344 rats (Rattus norvegicus); conditions: oral gavage 40, 20, 10 mg/kg once a day for 30 days; vs model group
Source text: as §2, §3
as §4, with “recorded. […]” for “recorded.”
as §5

[3] = gavage 0.07 and 0.035 g/kg twice a day for 7 days
[4] = low-dose, high-dose vs control, P>0.05
[5] = high-dose group (0.07 g/kg), female
[6] = high-dose group (0.07 g/kg), male
[7] = low-dose group (0.035 g/kg), female
[8] = low-dose group (0.035 g/kg), male

## CC(C)C[C@H]1C(=O)N2CCC[C@H]2[C@]2(O)O[C@](NC(=O)[C@@H]3C=C4c5cccc6[nH]c(Br)c(c56)C[C@H]4N(C)C3)(C(C)C)C(=O)N12 [bromocriptine]
Pituitary prolactinoma
  side effects: mainly gastrointestinal reactions

## CN(C)CCc1ccc(O)cc1 [hordenine, 4-(2-dimethylaminoethyl)phenol]
SD rats [1]; 1 day
  time to recovery of reduced activity after treatment: about 2 hours
SD rats [1]; 1 day of administration, 7 days of observation
  death of rats within 7 days: no rats die
SD rats [1]; 1 day, 7 days of observation
  general clinical signs: no other adverse reactions
TLR4/NF-κB/MAPK pathway
  expression of ATCH in pituitary glands (Western blot): significantly reduce
  expression of MAPK12 in pituitary glands (Western blot): significantly reduce; also recorded: significantly down-regulated
  expression of NF-kB protein in pituitary glands: significantly down-regulated
  expression of PRL in pituitary glands (Western blot): significantly reduce
  expression of STAT3 protein in pituitary glands: significantly down-regulated
  expression of TLR4 in pituitary glands (Western blot): significantly reduce; also recorded: significantly down-regulated
  expression of TNF-α in pituitary glands (Western blot): significantly reduce
  expression of caspase-1 protein in pituitary glands: significantly down-regulated
SD rats [2]; Heart, female, high-dose group
  Inflammation score: 0
SD rats [2]; Heart, female, low-dose group
  Inflammation score: 0
SD rats [2]; Heart, male, high-dose group
  Inflammation score: 0
SD rats [2]; Heart, male, low-dose group
  Inflammation score: 0
SD rats [2]; Kidney, female, high-dose group
  Inflammation score: 0
SD rats [2]; Kidney, female, low-dose group
  Inflammation score: 0
SD rats [2]; Kidney, male, high-dose group
  Inflammation score: 1
SD rats [2]; Kidney, male, low-dose group
  Inflammation score: 0
SD rats [2]; Liver, female, high-dose group
  Inflammation score: 0
SD rats [2]; Liver, female, low-dose group
  Inflammation score: 0
SD rats [2]; Liver, male, high-dose group
  Inflammation score: 0
SD rats [2]; Liver, male, low-dose group
  Inflammation score: 0
SD rats [2]; Lung, female, high-dose group
  Inflammation score: 1
SD rats [2]; Lung, female, low-dose group
  Inflammation score: 0
SD rats [2]; Lung, male, high-dose group
  Inflammation score: 1
SD rats [2]; Lung, male, low-dose group
  Inflammation score: 0
SD rats [2]; Spleen, female, high-dose group
  Inflammation score: 1
SD rats [2]; Spleen, female, low-dose group
  Inflammation score: 0
SD rats [2]; Spleen, male, high-dose group
  Inflammation score: 1
SD rats [2]; Spleen, male, low-dose group
  Inflammation score: 0
SD rats [2]; [3]
  general clinical signs: no other adverse reactions
  time to recovery of reduced activity after treatment: about 2 hours
SD rats [2]; gavage 0.07 g/kg and 0.035 g/kg twice a day for 7 days
  death of rats: No rats die; also recorded: no Rattus norvegicus death
SD rats [2]; gavage, twice a day for 7 days
  lethal dose: greater than 0.14 g/kg
SD rats [2]; high-dose group
  inflammation in the liver, spleen, and kidneys (pathological slices and biochemical experiments): slight inflammation
  kidney pathology: topical renal tubule interstitial connective tissue of rats in the high-dose group is proliferated
  liver pathology (hepatocytes): extensive severe edema
  lung pathology: proliferated alveolar epithelial cells, and the alveolar walls are thickened
  spleen pathology (white pulp): topical lymphocytes in the white pulp of the spleen tissue are reduced
  tissue inflammatory response in the spleen, lung, and kidney: mild inflammatory response
SD rats [2]; low-dose group
  kidney pathology: no obvious abnormality
  liver pathology (hepatocytes): extensive edema
  lung pathology: a large number of proliferated alveolar epithelial cells
  spleen pathology (white pulp): A small amount of lymphocytes exhibit necrosis, apoptosis
  tissue inflammatory response: no inflammatory response
SD rats [2]; [4]
  liver function indexes: no significant influence
  renal function (blood BUN and CREA): no significant influence
SD rats [2]; one week after the treatment
  body weight: physiological increase
SD rats [2]; [5]
  ALB: 32.45 ± 1.61 g/L
  ALP: 195.08 ± 92.02 U/L
  ALT: 51.25 ± 4.84 U/L
  AST: 141 ± 12.04 U/L
  DBIL: 7.23 ± 1.72 µmol/L
  TBA: 27.57 ± 12.2 µmol/L
  TBIL: 13.4 ± 5.73 µmol/L
  TP: 55.45 ± 2.31 g/L
  γ-GT: 3.62 ± 1.97 U/L
SD rats [2]; [6]
  ALB: 29.5 ± 1.05 g/L
  ALP: 278.67 ± 38.64 U/L
  ALT: 51.47 ± 6.19 U/L
  AST: 147.02 ± 17.42 U/L
  DBIL: 6.14 ± 0.86 µmol/L
  TBA: 41.43 ± 10.19 µmol/L
  TBIL: 10.08 ± 2.69 µmol/L
  TP: 49.11 ± 2.17 g/L
  γ-GT: 3.9 ± 2.10 U/L
SD rats [2]; [7]
  ALB: 31.88 ± 1.02 g/L
  ALP: 229.4 ± 70.39 U/L
  ALT: 43.54 ± 3.84 U/L
  AST: 146.92 ± 24.61 U/L
  DBIL: 9.03 ± 5.05 µmol/L
  TBA: 23.77 ± 6.9 µmol/L
  TBIL: 11.67 ± 5.16 µmol/L
  TP: 53.54 ± 1.24 g/L
  γ-GT: 3.92 ± 1.78 U/L
SD rats [2]; [8]
  ALB: 28.86 ± 0.55 g/L
  ALP: 328.05 ± 53.25 U/L
  ALT: 40.46 ± 5.55 U/L
  AST: 116.65 ± 18.14 U/L
  DBIL: 6.81 ± 2.83 µmol/L
  TBA: 36.99 ± 10.95 µmol/L
  TBIL: 10.64 ± 4.19 µmol/L
  TP: 47.34 ± 1.99 g/L
  γ-GT: 2.59 ± 1.84 U/L
SD rats [2]; treatment groups
  pathological sections: toxicity to liver, spleen, lung and kidney: slight toxicity
  physiological conditions, weight changes, behavioral activities vs control group: no significant differences
IL-β
  expression of IL-β in serum (ELISA): significantly inhibit
Prolactin (PRL)
  expression of PRL in serum (ELISA): significantly inhibit
